Patent US20260284016A1, “COMBINATIONS AND METHODS FOR ENHANCING CHECKPOINT INHIBITOR THERAPIES IN CANCER TREATMENT” (PURDUE RESEARCH FOUNDATION, priority 2004, published 2026)

Key:
[1] = system: M2-induced THP-1 macrophages; test: Reprogramming of M2-polarized THP-1 macrophages, marker mRNA by qPCR; type: cell-based, human
Method: THP-1 cells were seeded into 96-well plates at a density of 60,000 cells/well. Cells were differentiated into unpolarized macrophages by 48 hours incubation with 200 nM PMA followed by 24 hours incubation in fresh RPMI medium. […] Cultures were maintained at 37° C., in a humidified 5% CO2 incubator.
Total RNA was isolated from 1×10^5-2×10^5 macrophages using a Quick-RNA™ MicroPrep kit (Zymo Research, Irvine, CA) according to the manufacturer-recommended protocol. The RNA samples were then reverse-transcribed into cDNA using high-capacity cDNA reverse transcription kits (Applied Biosystems, Foster City, CA; #4368814), qPCR analyses were performed using the iTaq™ Universal SYBR Green SuperMix (Bio-Rad Laboratories GmbH, Hercules, CA; #1725121), iCycler thermocycler, and iCycler iQ 3.0 software (Bio-Rad Laboratories GmbH, Hercules, CA) to track the expression of markers characteristic of macrophage polarization states, IL-6, CXCL10, IFNα, IFN-γ and CD86 were used as markers for an M1 phenotype, while CCL18. CD206, CD163 and Arg1 were employed as markers for the M2 phenotype, IL-1β, PDGFβ, MMP9 and TIMP 3 were measured as indicators of an anti-inflammatory phenotype. IRAK-4 was used as an indicator of TLR7 stimulation. To control for specificity of the amplification products, a melting curve analysis was performed. […] Each sample was analyzed independently in triplicate for each marker.
In both data sets, the cells were harvested for gene analysis by qPCR.
Primarily, human monocytic (THP-1) cells were induced to the M2-like phenotype using the methods and materials previously described. In particular, THP-1 cells were seeded into 96-well plates at a density of 60,000 cells/well. Cells were differentiated into unpolarized macrophages by 48 h incubation with 200 nM PMA followed by 24 hours incubation in fresh RPMI medium. The resulting macrophages were polarized to an M2-like phenotype by incubation with […] IL-4, 20 ng/ml […], and 5 ng/mL IL-6 for 48h. Cultures were maintained at 37° C. in a humidified 5% CO2 incubator.
In addition to the nonconjugated TLR7 agonist, conjugated compounds of the present disclosure were likewise evaluated. Human THP-1 cells were induced to macrophages having the M2-like phenotype per the methods set forth herein (e.g., using 20 ng/mL IL-4, 20 ng/mL IL-13, 5 ng/mL IL-6), then reprogrammed with different nM concentrations of various compounds of the present disclosure for 2 hours; namely, a nonconjugated (free drug) TLR7 agonist compound having formula I and/or II (data shown collectively as Compound 3A), a folate-conjugated TLR7 agonist compound having formula XV (having a releasable linker) (e.g., Compound 3B), a folate-conjugated TLR7 agonist compound having formula XVII (having a non-releasable linker) (e.g., Compound 3C), and a folate-conjugated TLR7 agonist compound having formula XVI (having a non-releasable linker) (e.g., Compound 3D). The cells were subsequently harvested for gene analysis by qPCR and the relative expression of CCL18 (FIG. 14A), CD206 (FIG. 14B), and IL-1β (FIG. 14C) analyzed.

BM-induced mice = system: BM-induced mice
Method: Studies were also performed to determine if macrophages in pulmonary fibrotic lungs might be specifically targeted with folate-linked drugs in vivo. […] (The BM model is widely regarded to be helpful in terms of enabling mechanistic investigations relevant to fibrogenesis in an in vivo context.)
More specifically, eight-week-old C57BL6 male mice from Charles River (average weight 22 g to 25 g) were housed under pathogen-free conditions at room temperature (22° C.) under a 12 hours light-dark cycle. Mice were placed on a folate deficient chow (Envigo Teklad Global Rat Food Pellets) for 1 week prior to the BM or PBS instillation. Fresh water and folate-deficient diet were freely available. All animal procedures were approved by the Purdue Animal Care and Use Committee in accordance with National Institute of Health guidelines.
Thereafter, the mice were anesthetized with ketamine/xylazine and the necks of the mice were shaved using hair remover lotion and then sterilized with 70% alcohol. A small incision was made on the neck to visualize the trachea. Mice were positioned at a 75-degree angle and injected intratracheally with 100 μL sterile PBS or BM (Cayman Chemicals, Ann Arbor, MI; #13877) dissolved in PBS (0.75 mg/kg) using a 1 cc syringe with 26 G needle. Body weights were monitored every other day throughout the experiment.
Lobes of the right lung collected above were weighed, placed in a pressure-tight vial (Supelco Inc., Bellefonte, PA; #27003), and hydrolyzed with 6N HCl (10 ml/g, v/w) in a sand bath at 120° C., for 3.5 hours. The hydrolyzed solution was cooled at 4° C., for 15 min and transferred to a 1.5 ml Eppendorf tube prior to centrifugation at 12,000 rcf for 15 min at 4° C. Supernatant was carefully collected, aliquoted and used for hydroxyproline (HYP) analysis.
For the subsequent HYP analysis, 10 μl of sample was transferred into a 96-well plate and neutralized with 10 μl of 5.3 M sodium hydroxide solution. Isopropanol ([…]) was then added to each well followed by 20 μl of oxidation buffer and the mixture was incubated on a shaker at room temperature for 5 min. Analytical reagent (260 μl) was added, and the plate was incubated on a shaker at room temperature for 30 seconds and incubated immediately at 60° C., for 25 min. The absorbance was measured at 560 nm (A560) within 15 min. All reagents were prepared according to a previously reported protocol.
For histological analysis of the lung sections, fixed lungs (see above) were embedded in paraffin, sectioned and stained with hematoxylin-eosin (H&E), Masson's trichrome or F3 (anti-mouse FRβ antibody). Tissue sections were examined in a blinded manner by a licensed pathologist. More than 90×10^6 cells were quantified per section using Aperio-Image Scope (Leica Biosystems, Wetzlar, DE).
For this, BM-treated mice were intravenously injected every other day beginning on day 10 with either vehicle (3% DMSO in PBS) or Compound 1B (see FIG. 8A). […] In BM-induced experimental pulmonary fibrosis in mice, inflammation is known to persist for about 9-10 days after BM installation. Because, inflammation to fibrosis switch happens in this model approximately day 9 to day 14, and anti-inflammatory markers start appearing at about day 10, dosing began on day 10 (FIG. 8A).
Two doses were given every other day till day 21. The individual doses on a day are separated by 6 hours to prevent any “tolerance” to TLR agonists. Mice were then sacrificed on day 21 and subjected immediately to bronchoalveolar lavage followed by resection of the lungs for immunohistochemistry and quantitation of collagen and hydroxyproline.

[2] = 2 hours with drug, then drug-free medium

Structure (SMILES): CCCCc1nc2c(N)nc3ccccc3c2n1CC(C)(C)OC(=O)OCCSSCC(NC(=O)CCC(NC(=O)c1ccc(NCc2cnc3nc(N)[nH]c(=O)c3n2)cc1)C(=O)O)C(=O)O (stereo not drawn) [Compound 1B]
- anti-inflammatory/M2-type markers (CCL18, CD206, IL-1β, PDGFβ mRNA) ([1]; 2 hours incubation, harvested at once or after further 46 hours): downregulated anti-inflammatory/M2-type markers of macrophages more than Compound 1A
- TNFα induction [1, 2]: dramatically improved
- potency in reprogramming [1, 2]: superior potency relative to Compound 1A
- order of efficacy on lung hydroxyproline content (BM-induced mice; 0, 1, 3, or 10 nmol/mouse, day 21): 10 nmol/mouse>3 nmol/mouse>1 nmol/mouse>0 nmol/mouse
- lung histology with rising dose (BM-induced mice; 0, 1, 3, or 10 nmoles): lung histology improved
- weight loss across doses (BM-induced mice; 0, 1, 3, or 10 nmoles every other day from day 10): no difference in weight loss
- response in lung sections (DAPI, anti-F4/80, anti-CD206 staining) (BM-induced mice; healthy and fibrotic lungs): robust anti-fibrotic and proinflammatory response
- collagen stain, Masson's trichrome (BM-induced mice; tail vein injection, treatment from day 10): strongly suppressed
- lung architecture, H&E staining (BM-induced mice; treatment from day 10): resembles that of healthy mice
